Source: patent publication US9763445B2, “Safened herbicidal compositions comprising a pyridine carboxylic acid herbicide” (Dow AgroSciences, LLC, priority 2014, dated 2017)

Columns and labels:
wild chamomile (MATCH) = assay: Postemergence greenhouse trial, % visual injury on wild chamomile; assay type: in vivo, Matricaria chamomilla
Protocol: (§1) Seeds of the desired test plant species were planted in Sun Gro MetroMix® 306 planting mixture, which typically has a pH of 6.0 to 6.8 and an organic matter content of about 30 percent, in plastic pots with a surface area of 103.2 square centimeters (cm^2). When required to ensure good germination and healthy plants, a fungicide treatment and/or other chemical or physical treatment was applied. The plants were grown for 7-36 days (d) in a greenhouse with an approximate 14-hour (h) photoperiod which was maintained at about 23° C. during the day and 22° C. during the night. Nutrients and water were added on a regular basis and supplemental lighting was provided with overhead metal halide 1000-Watt lamps as necessary. The plants were employed for testing when they reached the second or third true leaf stage.
(§2) Weighed amounts of technical material were dissolved in a volume of 97:3 volume per volume (v/v) acetone/dimethyl sulfoxide (DMSO) to stock solutions. […] The concentrated stock solutions were diluted with an aqueous mixture of 1.5% v/v of Agri-dex crop oil concentrate to provide the appropriate application rates. Compound requirements are based upon a 12 milliliter (mL) application volume at a rate of 187 liters per hectare (L/ha). Stocks solutions of the safeners were prepared following the same procedure. Spray solutions of the safeners and experimental compound mixtures were prepared by adding the stock solutions to the appropriate amount of dilution solution to form a 12 mL spray solution in two-way combinations. Formulated compounds were applied to the plant material with an overhead Mandel track sprayer equipped with 8002E nozzles calibrated to deliver 187 L/ha over an application area of 0.503 square meters (m^2) at a spray height of 18 inches (43 centimeters (cm)) above average plant canopy. Control plants were sprayed in the same manner with the solvent blank. All herbicide application (component a) rates are in g ae/ha and all safener (component b) rates are in g ai/ha.
(§3) The treated plants and control plants were placed in a greenhouse as described above and watered by sub-irrigation to prevent wash-off of the test compounds. After 20-22 d, the condition of the test plants as compared with that of the control plants was determined visually and scored on a scale of 0 to 100 percent where 0 corresponds to no injury and 100 corresponds to complete kill. Colby's equation was used to determine the herbicidal effects expected from the mixtures. […]

velvetleaf (ABUTH) = assay: Postemergence greenhouse trial, % visual injury on velvetleaf; assay type: in vivo, Abutilon theophrasti; settings: alone, 35 g/ha
Protocol: as §1, §2
(§4) The treated plants and control plants were placed in a greenhouse as described above and watered by sub-irrigation to prevent wash-off of the test compounds. After 20-22 d, the condition of the test plants as compared with that of the control plants was determined visually and scored on a scale of 0 to 100 percent where 0 corresponds to no injury and 100 corresponds to complete kill. The condition of the test plants was compared with that of the control plants as determined visually and scored on a scale of 0 to 100 percent, where 0 corresponds to no injury and 100 corresponds to complete kill. Colby's equation was used to determine the herbicidal effects expected from the mixtures.
(§5) The safener cloquintocet-mexyl was combined with compound 1, compound 2, compound 4, compound 5, and compound 6, and applied to corn/maize (ZEAMX) and spring wheat (TRZAS) and the phytotoxicity of the herbicidal compositions was measured. In addition, the efficacy of the herbicidal composition on velvetleaf (ABUTH, Abutilon theophrasti), pigweed (AMARE, Amaranthus retroflexus), winter rape (BRSNW, Brassica napus), lambsquarters (CHEAL, Chenopodium album), thistle (CIRAR, Cirsium arvense), nutsedge (CYPES, Cyperus esculentus), poinsettia (EPHHL, Euphorbia heterophylla), wild buckwheat (POLCO, Polygonum convolvulus), giant foxtail (SETFA, Setaria faberi), and chickweed (STEME, Stellaria media) was evaluated.
(§6) The safener cloquintocet-mexyl was combined with compound 1, compound 2, compound 3, compound 7, compound 8, compound 9, compound 10, compound 11, compound 12, compound 13, compound 14, compound 15, compound 16, compound 17, compound 18, compound 19, and compound 20, and applied to spring wheat (TRZAS), winter wheat (TRZAW), and spring barley (HORVS) and the phytotoxicity of the herbicidal compositions was measured. […]

nutsedge (CYPES) = assay: Postemergence greenhouse trial, % visual injury on nutsedge; assay type: in vivo, Cyperus esculentus; settings: for % visual injury, Ob: alone, 35 g/ha; for % visual injury, observed (Ob): CYPES
Protocol: as §1, §2, §4
as §5, with “evaluated. […]” for “evaluated.”
The safener cloquintocet-acid and a number of agriculturally acceptable esters and salts (-mexyl, -dimethylammonium salt and -triethylammonium salt) were combined in varying ratios with compound 1 and applied to spring wheat (TRZAS), winter wheat (TRZAW), and spring barley (HORVS), and the phytotoxicity of the herbicidal compositions was measured. […]

chickweed (STEME) = assay: Postemergence greenhouse trial, % visual injury on chickweed; assay type: in vivo, Stellaria media; settings: for % visual injury, observed (Ob): STEME; for % visual injury, Ob: alone, 35 g/ha
Protocol: as §1, §2, §4
as §5, with “evaluated. […]” for “evaluated.”

winter wheat (TRZAW) = assay: Postemergence greenhouse trial, % visual injury on winter wheat; assay type: in vivo, Triticum aestivum
Protocol: as §1, §2, §4, §6

corn/maize (ZEAMX) = assay: Postemergence greenhouse trial, % visual injury on corn/maize; assay type: in vivo, Zea mays; settings: for % visual injury, Ob: alone, 35 g/ha; for % visual injury, observed (Ob): ZEAMX
Protocol: as §1, §2, §4
as §5, with “evaluated. […]” for “evaluated.”

wild pansy (VIOTR) = assay: Postemergence greenhouse trial, % visual injury on wild pansy; assay type: in vivo, Viola tricolor
Protocol: as §1, §2, §3

[1] = compound 2 4.380 + CQC-m 0 g/ha

Nc1c(F)c(-c2ccc3cc[nH]c3c2F)nc(C(=O)OCc2ccccc2)c1Cl [compound 2]
% visual injury, observed (Ob) (wild chamomile (MATCH); [1]): 30%
% visual injury, observed (Ob) (wild chamomile (MATCH); compound 2 8.75 + CQC-m 0 g/ha): 58%
% visual injury, observed (Ob) (wild chamomile (MATCH); compound 2 17.5 + CQC-m 0 g/ha): 91%
% visual injury, observed (Ob) (wild chamomile (MATCH); compound 2 35 + CQC-m 0 g/ha): 98%
% visual injury, observed (Ob) (wild chamomile (MATCH); compound 2 70 + CQC-m 0 g/ha): 100%
% visual injury, Ob (velvetleaf (ABUTH)): 80%
% visual injury, Ob (nutsedge (CYPES)): 30%
% visual injury, observed (Ob) (chickweed (STEME); [1]): 25%
% visual injury, observed (Ob) (chickweed (STEME); compound 2 8.75 + CQC-m 0 g/ha): 68%
% visual injury, observed (Ob) (chickweed (STEME); compound 2 17.5 + CQC-m 0 g/ha): 97%
% visual injury, observed (Ob) (chickweed (STEME); compound 2 35 + CQC-m 0 g/ha): 100%
% visual injury, observed (Ob) (chickweed (STEME); compound 2 70 + CQC-m 0 g/ha): 100%
% visual injury, observed (Ob) (winter wheat (TRZAW); TRZAW, compound 2 35 + CQC-m 0 g/ha): 20%
% visual injury, observed (Ob) (winter wheat (TRZAW); TRZAW, compound 2 70 + CQC-m 0 g/ha): 30%
% visual injury, observed (Ob) (winter wheat (TRZAW); TRZAW, compound 2 140 + CQC-m 0 g/ha): 50%
% visual injury, Ob (corn/maize (ZEAMX)): 35%

Nc1c(F)c(-c2ccc3cc[nH]c3c2F)nc(C(=O)O)c1Cl [compound 1]
% visual injury, observed (Ob) (nutsedge (CYPES); compound 1 alone 20 g/ha): 35%
% visual injury, observed (Ob) (nutsedge (CYPES); compound 1 alone 40 g/ha): 35%
% visual injury, Ob (nutsedge (CYPES)): 80%
% visual injury, Ob (chickweed (STEME)): 100%
% visual injury, observed (Ob) (winter wheat (TRZAW); TRZAW, compound 1 alone 20 g/ha): 13%
% visual injury, observed (Ob) (winter wheat (TRZAW); TRZAW, compound 1 alone 40 g/ha): 15%
% visual injury, Ob (winter wheat (TRZAW); alone, 35 g/ha): 40%
% visual injury, Ob (winter wheat (TRZAW); alone, 70 g/ha): 50%
% visual injury, observed (Ob) (corn/maize (ZEAMX); compound 1 alone 20 g/ha): 3%
% visual injury, observed (Ob) (corn/maize (ZEAMX); compound 1 alone 40 g/ha): 30%
% visual injury, Ob (corn/maize (ZEAMX)): 40%

CCCCCC(C)OC(=O)COc1ccc(Cl)c2cccnc12 (stereo not drawn) [CQC-m, cloquintocet-mexyl, reference compound]
% visual injury, Ob (wild chamomile (MATCH); compound 0, CQC-m 4.375 g/ha): 0%
% visual injury, Ob (wild chamomile (MATCH); compound 0, CQC-m 8.75 g/ha): 0%
% visual injury, Ob (wild chamomile (MATCH); compound 0, CQC-m 17.5 g/ha): 0%
% visual injury, Ob (wild chamomile (MATCH); compound 0, CQC-m 35 g/ha): 0%
% visual injury, Ob (wild chamomile (MATCH); compound 0, CQC-m 70 g/ha): 0%
% visual injury, Ob (velvetleaf (ABUTH)): 0%
% visual injury, observed (Ob) (nutsedge (CYPES); safener alone 2.5 g/ha): 0%
% visual injury, observed (Ob) (nutsedge (CYPES); safener alone 5 g/ha): 0%
% visual injury, observed (Ob) (nutsedge (CYPES); safener alone 10 g/ha): 0%
% visual injury, observed (Ob) (nutsedge (CYPES); safener alone 20 g/ha): 0%
% visual injury, Ob (nutsedge (CYPES)): 0%
% visual injury, Ob (chickweed (STEME)): 0%
% visual injury, Ob (winter wheat (TRZAW); TRZAW, compound 0 g/ha, CQC-m 35 g/ha): 0%
% visual injury, Ob (winter wheat (TRZAW); TRZAW, compound 0 g/ha, CQC-m 70 g/ha): 0%
% visual injury, observed (Ob) (winter wheat (TRZAW); TRZAW, safener alone 2.5 g/ha): 0%
% visual injury, observed (Ob) (winter wheat (TRZAW); TRZAW, safener alone 5 g/ha): 0%
% visual injury, observed (Ob) (winter wheat (TRZAW); TRZAW, safener alone 10 g/ha): 0%
% visual injury, observed (Ob) (winter wheat (TRZAW); TRZAW, safener alone 20 g/ha): 0%
% visual injury, Ob (winter wheat (TRZAW); alone, 35 g/ha): 0%
% visual injury, Ob (winter wheat (TRZAW); alone, 70 g/ha): 0%
% visual injury, Ob (wild pansy (VIOTR); VIOTR, 4.375 g/ha, applied alone): 0%
% visual injury, Ob (wild pansy (VIOTR); VIOTR, 8.75 g/ha, applied alone): 0%
% visual injury, Ob (wild pansy (VIOTR); VIOTR, 17.5 g/ha, applied alone): 0%
% visual injury, Ob (wild pansy (VIOTR); VIOTR, 35 g/ha, applied alone): 0%
% visual injury, Ob (wild pansy (VIOTR); VIOTR, 70 g/ha, applied alone): 0%
% visual injury, Ob (wild pansy (VIOTR); VIOTR, compound 0 g/ha, CQC-m 4.375 g/ha): 0%
% visual injury, Ob (wild pansy (VIOTR); VIOTR, compound 0 g/ha, CQC-m 8.75 g/ha): 0%
% visual injury, Ob (wild pansy (VIOTR); VIOTR, compound 0 g/ha, CQC-m 17.5 g/ha): 0%
% visual injury, Ob (wild pansy (VIOTR); VIOTR, compound 0 g/ha, CQC-m 35 g/ha): 0%
% visual injury, Ob (wild pansy (VIOTR); VIOTR, compound 0 g/ha, CQC-m 70 g/ha): 0%
% visual injury, Ob (wild pansy (VIOTR); alone, 35 g/ha): 0%
% visual injury, observed (Ob) (corn/maize (ZEAMX); safener alone 2.5 g/ha): 0%
% visual injury, observed (Ob) (corn/maize (ZEAMX); safener alone 5 g/ha): 0%
% visual injury, observed (Ob) (corn/maize (ZEAMX); safener alone 10 g/ha): 0%
% visual injury, observed (Ob) (corn/maize (ZEAMX); safener alone 20 g/ha): 0%
% visual injury, Ob (corn/maize (ZEAMX)): 0%

Nc1cc(-c2ccc3cc[nH]c3c2F)nc(C(=O)O)c1Cl [compound 15]
% visual injury, Ob (wild pansy (VIOTR); VIOTR, compound 4.375 g/ha, CQC-m 0 g/ha): 0%
% visual injury, Ob (wild pansy (VIOTR); VIOTR, compound 8.75 g/ha, CQC-m 0 g/ha): 10%
% visual injury, Ob (wild pansy (VIOTR); VIOTR, compound 17.5 g/ha, CQC-m 0 g/ha): 10%
% visual injury, Ob (wild pansy (VIOTR); VIOTR, compound 35 g/ha, CQC-m 0 g/ha): 20%
% visual injury, Ob (wild pansy (VIOTR); VIOTR, compound 70 g/ha, CQC-m 0 g/ha): 30%

COC(=O)c1nc(-c2ccc3cc[nH]c3c2F)c(F)c(N)c1OC [compound 12]
% visual injury, Ob (wild chamomile (MATCH); compound 4.380 g/ha, CQC-m 0): 5%
% visual injury, Ob (wild chamomile (MATCH); compound 8.75 g/ha, CQC-m 0): 3%
% visual injury, Ob (wild chamomile (MATCH); compound 17.5 g/ha, CQC-m 0): 7%
% visual injury, Ob (wild chamomile (MATCH); compound 35 g/ha, CQC-m 0): 10%
% visual injury, Ob (wild chamomile (MATCH); compound 70 g/ha, CQC-m 0): 13%

COc1c(C(=O)O)nc(-c2ccc3cc[nH]c3c2F)c(F)c1N [compound 13]
% visual injury, Ob (winter wheat (TRZAW); TRZAW, compound 35 g/ha, CQC-m 0 g/ha): 70%
% visual injury, Ob (winter wheat (TRZAW); TRZAW, compound 70 g/ha, CQC-m 0 g/ha): 80%
